# Measured values as given in US20060234985A1, “Combination therapy comprising a bisphosphonate and a hmg-coa reductase inhibitor” (priority 2002, published 2006).
# Experiments:
# [1] = tested on: myeloma cell line LP-1; experiment: tetrazolium reduction (Promega MTS) assay with isobologram analysis, LP-1; type: cell-based, human
# Protocol: (§1) We investigated the cytotoxic effect of the HMG-CoA reductase inhibitor fluvastatin on the human multiple myeloma cell lines LP-1, OPM-2, U266, NCI-H929 and RPMI-8226 in vitro using a tetrazolium reduction assay. After 3 days culture in the presence of 0 to 50 μM fluvastatin, the Promega MTS assay reagent was used to determine the level of inhibition of cell proliferation and/or cell death.
# (§2) Using the same assay we investigated whether the activity of fluvastatin against multiple myeloma in vitro could be enhanced by the addition of the bisphosphonate Zometa® (zoledronic acid). Using 80% cell inhibition as an end point, isobolograms were constructed to visualize the interaction between fluvastatin and Zometa®.
# [2] = tested on: human multiple myeloma cell lines LP-1, OPM-2, U266, NCI-H929 and RPMI-8226; experiment: tetrazolium reduction (Promega MTS) assay of cell proliferation and/or cell death, myeloma cell line panel; type: cell-based; conditions: 3 days culture, p<0.05 by paired Student's t-test
# Protocol: as §1
# as §2, with “Zometa®. […] To illustrate this point, >50 μM fluvastatin or […] Zometa® alone was required to induce 80% cell death in the myeloma cell line LP-1 but the combination of 25 μM fluvastatin and 0.21 μM Zometa® had the same effect.” for “Zometa®.”
# [3] = tested on: U266; experiment: tetrazolium reduction (Promega MTS) assay, U266; type: cell-based, human; conditions: 3 days culture
# Protocol: as §1
# [4] = tested on: OPM-2; experiment: tetrazolium reduction (Promega MTS) assay, OPM-2; type: cell-based, human; conditions: 3 days culture
# Protocol: as §1
Compound,concentration required to induce 80% cell death ([1]; Zometa alone),"inhibition of proliferation ([2]; 25 μM and 50 μM, all cell lines)",fluvastatin concentration as low as which significantly inhibited proliferation ([2]; all cell lines except RPMI-8226),inhibition at 50 μM [3],inhibition at 50 μM [4],concentration required to induce 80% cell death ([1]; fluvastatin alone)
"O=P(O)(O)C(O)(Cn1ccnc1)P(=O)(O)O [Zometa®, 2-(imidazol-1yl)-1-hydroxyethane-1,1-diphosphonic acid]",> 100 µM,–,–,–,–,–
CC(C)n1c(/C=C/C(O)CC(O)CC(=O)O)c(-c2ccc(F)cc2)c2ccccc21 (stereo not drawn) [fluvastatin],–,significantly inhibited proliferation,2.5 µM,45%,> 90%,> 50 µM
